{"source": "patent US20120093809A1", "about": "“USE OF ALKANOYL L-CARNITINE IN COMBINATION WITH CHEMOTHERAPEUTIC AGENTS FOR THE TREATMENT OF NEOPLASMS” (priority 2008, published 2012)", "key": {"[1]": {"tested_on": "NCI-H460 non-small cell lung carcinoma", "assay": "Antitumor effect of carboplatin with and without acetyl L-carnitine, s.c. xenograft", "description": "Treatments started three days after cancer injection. Mice were subdivided (8 mice/group) in the following experimental groups: vehicle receiving only sterile water, carboplatin 40 mg/kg, i.p. q4d/wx3w; acetyl L-carnitine (200 mg/kg po, qdx5/wx3w)+carboplatin.\nBody weight recording was carried out through the study."}, "[2]": {"tested_on": "A2780/Dx multidrug-resistant ovarian carcinoma", "experimental": "A2780/Dx cancer cells were injected subcutaneously (s.c.) in the right flank of CD1 nude mice (5×10^6/100 μL/mouse). Treatments started eleven days after cancer injection.\nMice were subdivided (10 mice/group) in the following experimental groups: doxorubicin was given intravenously according to the schedule q7dx3 and acetyl-L-carnitine according to the schedule qdx5/wx3w.\nAcetyl L-carnitine was administered immediately before the agent given in combination.\nTo evaluate the anticancer activity, tumor diameters were measured with a Vernier caliper. The formula TV (mm^3)=[length (mm)×width (mm)^2]/2 was used, where the width and the length are the shortest and the longest diameters of each cancer, respectively. Efficacy of the molecule was evaluated as tumor volume inhibition (TVI %) according to the equation: % TVI=100-[(mean cancer weight of treated mice/mean cancer weight of control group)×100]. and Log10 cell kill (LCK) calculated by the formula LCK=(T−C)/3.32×DT, where T and C were the mean times (days) required for treated (T) and control (C) tumors, respectively, to reach 1 cm^3, and DT was the doubling time of control tumors. When tumors reached a volume of about 2 cm^3, mice were sacrificed by cervical dislocation."}, "[3]": {"tested_on": "NCI-H460 non-small cell lung carcinoma", "assay": "Antitumor activity of cisplatin in combination with L-carnitine, s.c. xenograft", "format": "in vivo", "details": "L-carnitine 200 mg/kg po given chronically", "description": "Treatments started three days after tumor injection.\nTo evaluate the antitumor activity, tumor diameters were measured with a Vernier caliper.\nWhen tumors reached a volume of 1-2 cm^3, mice were sacrificed by cervical dislocation. Body weight recording was carried out through the study and mortality was noted."}, "tumour growth": {"tested_on": "tumour growth", "details": "WO/2000/06134, cited from earlier work"}, "[4]": {"tested_on": "LnCaP prostate carcinoma cells (p53 wild-type)", "assay": "Antiproliferative activity of cisplatin with and without acetyl L-carnitine, MTT assay", "format": "cell-based", "details": "acetyl L-carnitine 10 mM; ≧72 h of exposure; 0.1% FBS", "description": "(§1) Moreover, the activity was also evaluated on two prostate tumor cell lines with p53 wild-type (LnCaP) or p53 null (PC3). […] The number of surviving cells was finally determined by the tetrazolium salt (MTT) assay, as described by Hansen M B et al. (Re-examination and further development of a precise and rapid dye method for measuring cell growth/cell kill. J. Immunol. Methods 119: 203-10, 1989). […] In this case the statistical comparison was performed by Mann-Whitney test.\n(§2) To test the effects of the compounds on cell growth, tumor cells were seeded in 96-well tissue culture plates at approximately 10% confluence and were allowed to attach and recover for at least 24 h. Tumor cells were exposed to compounds for 72 h or 6 days in 0.1% FBS at 37° C., then medium culture was removed and 100 μL/well of medium were added containing 25 μL/well of a solution 5 mg/mL MTT (final 1 mg/mL). Plates were kept at. 37° C. in incubator with 5% CO2 for 2 h for the formation of blu chrystals. The supernatant was removed and 100 μL/well of lysant medium were added. Plates were kept under stirring for 60 min. The survival cell was determined as optical density by a Multiskan spectrofluorimeter at 570 nm."}, "[5]": {"tested_on": "NCI-H1650 non-small cell lung carcinoma cells", "assay": "Antiproliferative activity of cisplatin with and without acetyl L-carnitine, MTT assay", "format": "cell-based", "description": "as §1, §2"}, "[6]": {"tested_on": "SJSA-1 (with amplification of mdm2) osteosarcoma cells", "assay": "Antiproliferative activity of cisplatin with and without acetyl L-carnitine, MTT assay", "format": "cell-based", "description": "as §1, §2"}, "[7]": {"tested_on": "NCI-H460 non-small cell lung carcinoma cells", "assay": "Antiproliferative activity of cisplatin with and without acetyl L-carnitine, MTT assay", "format": "cell-based", "description": "as §1\nas §2, with “Tumor cells were exposed to compounds for 72 h or 6 days in 0.1% FBS at 37° C., then medium culture was removed and 100 μL/well of medium were added containing 25 μL/well of a solution 5 mg/mL MTT (final 1 mg/mL).” left out"}, "[8]": {"tested_on": "A2780/Dx multidrug-resistant ovarian carcinoma cells", "assay": "Antiproliferative activity of cisplatin with and without acetyl L-carnitine, MTT assay", "format": "cell-based", "description": "as §1\nas §2, with “Tumor cells were exposed to compounds for 72 h or 6 days in 0.1% FBS at 37° C., then medium culture was removed and 100 μL/well of medium were added containing 25 μL/well of a solution 5 mg/mL MTT (final 1 mg/mL).” left out"}, "lung metastases [9]": {"tested_on": "lung metastases", "details": "ALC 100 mg/kg/day p.o.; cited from earlier work"}, "lung metastases [10]": {"tested_on": "lung metastases", "details": "WO/2000/06134; ALC orally 100 mg/kg; cited from earlier work"}, "[11]": {"details": "day +31, carboplatin 40 mg/kg ip q4d/wx3w, alone or with acetyl L-carnitine 200 mg/kg po qdx5/wx3w"}, "[12]": {"details": "day +24, doxorubicin 6 mg/kg iv, alone or with acetyl L-carnitine 200 mg/kg po"}, "[13]": {"details": "acetyl L-carnitine 1 mM, same schedule and serum conditions"}, "[14]": {"details": "acetyl L-carnitine 10 mM, 72 h, medium with 10% FBS"}, "[15]": {"details": "acetyl L-carnitine 10 mM, ≧72 h of exposure, 0.1% FBS"}}}
{"smiles": "N.N.O=C([O-])C1(C(=O)[O-])CCC1.[Pt+2]", "note": "[CARBOPLATIN, Carboplatin]", "values": [{"measurement": "LCK (1 cm^3)", "setting": "[1]; Log10 cell kill, DT = 3.6 days, carboplatin 40 mg/kg ip, alone or with acetyl L-carnitine 200 mg/kg po", "value": 0.66}, {"measurement": "BWL %", "setting": "[1]; carboplatin 40 mg/kg ip q4d/wx3w, alone or with acetyl L-carnitine 200 mg/kg po qdx5/wx3w", "value": 1, "unit": "%"}, {"measurement": "TV ± SE +31", "setting": "[1]; [11]", "value": "*704 ± 254 mm^3"}, {"measurement": "TVI % +31", "setting": "[1]; [11]", "value": 48, "unit": "%"}, {"measurement": "TVI % +31", "setting": "[1]; day +31, carboplatin 40 mg/kg ip q4d/wx3w, alone or with acetyl L-carnitine 200 mg/kg po qdx5/wx3w, listed as carboplatin", "value": "about 48%"}, {"measurement": "LETHAL", "setting": "[1]; dead/total mice, carboplatin 40 mg/kg ip q4d/wx3w, alone or with acetyl L-carnitine 200 mg/kg po qdx5/wx3w", "value": "0/8"}]}
{"smiles": "COc1cccc2c1C(=O)c1c(O)c3c(c(O)c1C2=O)C[C@@](O)(C(=O)CO)C[C@@H]3O[C@H]1C[C@H](N)[C@H](O)[C@H](C)O1", "note": "[Doxorubicin, doxorubicin]", "values": [{"measurement": "LCK (1 cm^3)", "setting": "[2]; DT = 2.9 days, doxorubicin 6 mg/kg iv, alone or with acetyl L-carnitine 200 mg/kg po", "value": 0.7}, {"measurement": "TV ± SE +24", "setting": "[2]; [12]", "value": "1059 ± 195", "unit": "mm^3"}, {"measurement": "TVI % ± SE +24", "setting": "[2]; [12]", "value": "**60 ± 11%"}, {"measurement": "Leth.", "setting": "[2]; dead/total mice, doxorubicin 6 mg/kg iv, alone or with acetyl L-carnitine 200 mg/kg po", "value": "0/10"}, {"measurement": "BWL % max", "setting": "[2]; doxorubicin 6 mg/kg iv q7dx3, alone or with acetyl L-carnitine 200 mg/kg po qdx5/wx3w", "value": 0, "unit": "%"}]}
{"smiles": "C[N+](C)(C)C[C@H](O)CC(=O)[O-]", "note": "[L-carnitine]", "values": [{"measurement": "potentiation of the cytotoxic activity of cisplatin", "setting": "[3]", "value": "not able to potentiate the cytotoxic activity of cisplatin"}]}
{"smiles": "CC(=O)O[C@H]1C(=O)[C@@]2(C)[C@H]([C@H](OC(=O)c3ccccc3)[C@]3(O)C[C@H](OC(=O)[C@H](O)[C@@H](NC(=O)c4ccccc4)c4ccccc4)C(C)=C1C3(C)C)[C@]1(OC(C)=O)CO[C@@H]1C[C@@H]2O", "note": "[Paclitaxel]", "values": [{"measurement": "TVI", "setting": "tumour growth; ALC orally 100 mg/kg where combined", "value": 88, "unit": "%"}]}
{"smiles": "CC(=O)O[C@H](CC(=O)[O-])C[N+](C)(C)C", "note": "[acetyl L-carnitine]", "values": [{"measurement": "potentiation of the cytotoxic activity of cisplatin", "setting": "[4]", "value": "able to potentiate the cytotoxic activity of cisplatin"}, {"measurement": "potentiation of the cytotoxic activity of cisplatin", "setting": "[5]; [13]", "value": "ineffective"}, {"measurement": "potentiation of the cytotoxic activity of cisplatin", "setting": "[5]; [14]", "value": "failed to increase cisplatin anti-proliferative activity"}, {"measurement": "potentiation of the cytotoxic activity of cisplatin", "setting": "[5]; [15]", "value": "able to potentiate the cytotoxic activity of cisplatin"}, {"measurement": "potentiation of the cytotoxic activity of cisplatin", "setting": "[6]; [13]", "value": "ineffective"}, {"measurement": "potentiation of the cytotoxic activity of cisplatin", "setting": "[6]; [14]", "value": "failed to increase cisplatin anti-proliferative activity"}, {"measurement": "potentiation of the cytotoxic activity of cisplatin", "setting": "[6]; acetyl L-carnitine 10 mM, 72 h of exposure, 0.1% FBS", "value": "able to potentiate the cytotoxic activity of cisplatin"}, {"measurement": "potentiation of the cytotoxic activity of cisplatin", "setting": "[7]; [13]", "value": "ineffective"}, {"measurement": "potentiation of the cytotoxic activity of cisplatin", "setting": "[7]; [14]", "value": "failed to increase cisplatin anti-proliferative activity"}, {"measurement": "potentiation of the cytotoxic activity of cisplatin", "setting": "[7]; [15]", "value": "able to potentiate the cytotoxic activity of cisplatin"}, {"measurement": "potentiation of the cytotoxic activity of cisplatin", "setting": "[8]; [13]", "value": "ineffective"}, {"measurement": "potentiation of the cytotoxic activity of cisplatin", "setting": "[8]; [14]", "value": "failed to increase cisplatin anti-proliferative activity"}, {"measurement": "potentiation of the cytotoxic activity of cisplatin", "setting": "[8]; [15]", "value": "able to potentiate the cytotoxic activity of cisplatin"}, {"measurement": "protection from toxicity of the antitumor drug", "setting": "lung metastases [9]", "value": "protects the mice from the lethal toxicity and from the neurotoxicity"}, {"measurement": "effect on tumour growth", "setting": "tumour growth; ALC orally 100 mg/kg", "value": "no effect on tumour growth"}, {"measurement": "effect on the formation of lung metastases", "setting": "lung metastases [10]", "value": "significant inhibitory effect on the formation of lung metastases"}]}
